Series [1] deals with rat EAE (MOG/IFA immunized Brown Norway rats). Briefly: Rat EAE model, clinical score. As to conditions: FIG. 1A. The class given is in vivo. The procedure: Female Brown Norway rats (Charles River Laboratories) were immunized intradermally at the base of the tail with MOG 1-125 100 ug/rat in IFA at day 0. Day 3 DMF (BG00012) qd 5, 25, 50, 100, 200 mg/kg delivered orally as a suspension in 0.8% HPMC. N=6 per group. Scoring 0=no disease, 1=tail paralysis, 2=hind limb weakness, 3=hind limb paralysis, 4=hind limb paralysis and forelimb weakness, 5=moribund or dead. Experimental in vivo procedures were performed in accordance with Institutional Animal Committee guidelines crEAE was induced by intradermal MOG/IFA immunization in Brown Norway rats. BG00012 was administered orally at a daily interval beginning three days after immunization. […] For the 100 mg/kg treatment group, average disease score at day 28 was 0.71 (n=6, SD=1.17) compared to 2.29 (n=6, SD=1.29) for the vehicle group.

Series [2] concerns rat spinal cords (EAE). Briefly: Histology and morphometry of lumbar spinal cord sections of EAE rats (GFAP, IBA-1, Luxol Fast Blue). Type of series: in vivo. The procedure: Lumbar spinal cord sections were prepared as FFPE sections for immunohistochemistry and processed on DAKO autostainer using GFAP antibody (DAKO), IBA-1 (Wako), CD3 (DAKO). Aperio Spectrum Color Deconvolution software was used for morphometric analysis. […] Panels (a) and (b) are from a rat treated with vehicle alone at 5× and 20× magnification, respectively, while panels (c) and (d) are from a rat treated with 100 mg/kg DMF, shown at 5× and 20× magnification, respectively. […] Morphometry analysis of EAE spinal cords was performed with Aperio software. Histological alterations were quantified with Aperio Image Scope software v10.1. The Color Deconvolution algorithm was used to select intensity thresholds either for brown DAB staining (GFAP and IBA-1 Immunostains) or for bright turquoise blue staining (Luxol Fast Blue). Positive staining was determined by the percent of strong positive stained pixels for each intensity threshold. Three lumbar spinal cord sections were quantitated per rat and the values for percent strong positive pixels were averaged for the final intensity value.

The test system of series [3] is primary rat astrocytes. Briefly: Quantitative PCR of gene expression in primary cultured astrocytes, with or without LPS. Type of series: cell-based. On the procedure: Rat astrocytes from cortex, hippocampus and striatum (Lonza clontech) were cultured as described by manufacturers protocol. Limiting dilutions of DMF in DMSO were added to cultures for 6 or 24 hours and stimulated with E. Coli LPS (Sigma). RNA was prepared using QIAgen Rneasy method. […] It is also apparent from the data that NQO1 is induced at a higher level by exposure to DMF for 24 hrs compared to induction by a 6 hour exposure. Direct effects of BG00012 on specific astrocytic and microglial cells were tested in vitro using primary rat astrocytes and RAW264.7 macrophage cells.

In series [4] the test system is primary astrocytes. Briefly: Gene expression profiling of LPS stimulated primary astrocytes. Type of series: cell-based, rat. To be noted: LPS 0, 10, 100 ng/ml; DMF 0, 3, 10, 30 μM, FIG. 5. On the procedure:
Primary astrocytes were treated with LPS at 0, 10, and 100 ng/ml, as indicated, and also treated with DMF at 0, 3, 10, or 30 μM as indicated. The magnitude of expression of each gene under each condition was scaled from 0 to 1, so that differences in color represent changes in expression of each gene as the conditions varied. The darkest green color represents no detectable expression (0), while the brightest red color represents the highest expression measured for that gene (1). […] The induced expression of many of the markers was suppressed by DMF treatment.
Direct effects of BG00012 on specific astrocytic and microglial cells were tested in vitro using primary rat astrocytes and RAW264.7 macrophage cells.

In series [5] the test system is Nrf2. Briefly: Nrf2 Western blotting, primary rat astrocytes. Type of series: cell-based. As to conditions: total cell lysates, GAPDH control, FIG. 9. On the procedure: (§1) Total cell lysates were prepared from the astrocyte cultures treated as indicated above. Nrf2 was detected by Western blotting. GAPDH was included as a housekeeping protein control.
The subject of series [6] is Nrf2. Briefly: Nrf2 Western blotting, primary human astrocytes. The class given is cell-based. To be noted: total cell lysates, GAPDH control, FIG. 9. On the procedure:
as §1
(Immunoblotting shows a protein as a band on a membrane.)

Series [7] deals with primary rat astrocytes. Briefly: Global gene expression analysis (Affymetrix GeneChip) in astrocytes treated with DMF. The class given is cell-based. As to conditions: p<10^−7 versus untreated astrocytes, FIG. 10. The procedure:
Global analysis of gene expression in astrocytes treated with DMF was performed using the Affymetrix GeneChip technology. […] The resulting gene list was annotated using the Ingenuity IPA database. […] Specific genes involved in cytoprotection and glutathione metabolism, identified in this assay, include, but are not limited to, Gsta2, Gsta3, Gclc, Ggt1, Txnrd1, Srxn1, Sqstm1, and Nqo1.

Series [8] relates to human spinal cord astrocytes. Briefly: Glutathione, metabolic activity and viability of cultured human spinal cord astrocytes. Type of series: cell-based. As to conditions: 24 hr MMF titration, FIG. 6C. On the procedure:
Primary cultures of human spinal cord astrocytes were treated for 24 hr with a titration of MMF or DMSO as a diluent control. Following 24 hr incubation with compound, cells were washed 1× with growth media and incubated with the cell-permeant substrate monochlorobimane. When bound to glutathione this substrate increases fluorescence. […] FIG. 6A. Similar MMF treated cells were also incubated with the cell permeant substrate resazurin, which increases fluorescence upon reduction to resorufin by cellular redox mechanisms and is used as a measure of cellular metabolic activity (CellTiter-Blue assay). […] FIG. 6B. To ensure the increases in glutathione and metabolic activity were not simply due to cellular proliferation in response to MMF treatment, parallel dishes of cells were incubated with calcein AM. Cellular esterases cleave this molecule to generate a fluorescent metabolite, which provides a measure of cell viability and relative total cell numbers. […] FIG. 6C.

In series [9] the test system is human spinal cord astrocytes. Briefly: H2O2-induced Ca++ mobilization in human spinal cord astrocytes (Calcium4 dye). The class given is cell-based. To be noted: Astrocyte, 24 hr MMF, 50 mM H2O2, FIG. 7C, read-out: EC50, protection against H2O2-induced Ca++ mobilization (non-linear regression). On the procedure: In another experiment, primary cultures of human spinal cord astrocytes were treated for 24 hr with a titration of MMF or DMSO as a diluent control. Following 24 hr incubation with compound, cells were washed 1× with HBSS and incubated with Calcium4 (Molecular Devices) loading dye. This dye permeates into cells and increases fluorescence upon binding of free intracellular Ca^++. Cells were then challenged with 50 mM H2O2 and monitored for changes in fluorescence. […] FIG. 7C.

For series [10], the system named is human spinal cord astrocytes. Briefly: H2O2 challenge of human spinal cord astrocytes: viability, metabolism, ATP. The class given is cell-based. To be noted: FIG. 8C. On the procedure: In another experiment, primary cultures of human spinal cord astrocytes were treated for 24 hr with a titration of MMF or DMSO as a diluent control. Following 24 hr incubation with compound, cells were washed 1× with HBSS and challenged with […] H2O2 for two hours, then washed in normal growth media, then incubated for an additional 24 hours.

Where a name gives a salt, the structure may show the parent alone.

As for `COC(=O)/C=C/C(=O)OC` [DMF, dimethyl fumarate], the EAE disease entry in [1] (200 mg/kg) is on record as “completely abrogated disease”. In addition, the EAE symptoms entry in series [1] (various doses (5-200 mg/kg qd oral from day 3)) was “reduced EAE symptoms in a dose-dependent manner”. The “activated astrocytes in grey matter of spinal cords (GFAP antibody)” value in [2] (100 mg/kg DMF versus vehicle alone, FIG. 3) is given as “fewer activated astrocytes”. Moreover, the “myelin loss during EAE in rat spinal cords (Luxol Fast Blue morphometry)” value in [2] (FIG. 12) is “diminishes myelin loss”. Further, the “LPS induced TNF expression (quantitative PCR)” value in series [3] (DMF 24 hours, LPS 0, 10, 30 ng/ml 4 hrs prior to harvest, FIG. 4B) was “repressed by DMF in a dose dependent manner”. In [3] (DMF for 6 hrs and 24 hrs, FIG. 4A), the “GFAP expression (quantitative PCR)” value is “inhibits GFAP expression in a concentration dependent manner”. Moreover, the “NQO1 expression (quantitative PCR)” value in series [3] (DMF for 6 hrs and 24 hrs, FIG. 4C) is “induces NQO1 expression in a concentration dependent manner”. The “LPS-induced expression of Ccl20, Ccl3, Ccl4, Cxcl1, Cxcl10, Cxcl2, Cxcl3, Cxcl6, IL1a, II1b, Tnf, Ifit3, Zc3h12a” value in [4] is “strongly suppressed”. Further, the “levels of Nrf2 (Western blotting), primary rat astrocytes” value in series [5] is “increase levels of Nrf2”. In addition, the “levels of Nrf2 (Western blotting), primary human astrocytes” value in series [6] was “increase levels of Nrf2”. Moreover, the “expression of Nrf2 target genes (incl. glutathione metabolism genes)” value in series [7] is recorded as “activates expression of Nrf2 target genes”.

As a reminder, the EC50 is the concentration needed to bring the measured effect to its halfway point. Take `COC(=O)/C=C/C(=O)O` [MMF, monomethyl fumarate]: in series [8], the “cell viability and relative total cell numbers (calcein AM)” value is given as “No substantial concentration-dependent changes”. Also, the EC50 in [9] turned out to be 5.4 µM. The “cellular ATP levels at the highest concentration of MMF” value in series [10] is “appeared to reduce cellular ATP levels”.

Source of the values: patent US20150132747A1, “Treatment of Neurodegeneration and Neuroinflammation” (BIOGEN IDEC MA INC., priority 2009, published 2015).
